Source: patent publication US5192758A, “2-biphenyl-carbapenem antibacterial agents” (Merck & Co., Inc., priority 1992, dated 1993)

Test system: rat
Experiment: Intracisternal assay: convulsant response (seizure potential)
Type: in vivo
Details: injection of 20 micro-liters into the intracisternal cavity, amount giving a 50% seizure rate
From the text: Central to the instant invention was the safety benefit realized by the incorporation of the cyano group to the imidazoliummethylbiphenyl moiety of the carbapenem nucleus, as shown in Table II below. […] This difference in activity was statistically significant and allows one to anticipate a much greater CNS safety profile for the compounds depicted.
The figure reported in Table II was the amount of active compound giving a 50% seizure rate in the rat, serving as a model for humans. For each compound, different concentrations were prepared in water and for each concentration, a group of animals were given an injection of 20 micro-liters into the intracisternal cavity. The seizure response of each member of the group was noted by observation.

Compound	CONVULSANT RESPONSE MCG/HEAD-ED50 [MCG/HEAD]
CC(O)C1C(=O)N2C(C(=O)[O-])=C(c3cc(C#N)cc(-c4ccc(C[n+]5ccn(CCO)c5)cc4)c3)CC12 (centres unmarked) [R^c = CH2 CH2 OH, R' = CN]	100
CC(O)C1C(=O)N2C(C(=O)[O-])=C(c3cccc(-c4ccc(C[n+]5ccn(CCO)c5)cc4)c3)CC12 (centres unmarked) [R^c = CH2 CH2 OH, R' = H]	35
CC(O)C1C(=O)N2C(C(=O)[O-])=C(c3cc(Br)cc(-c4ccc(C[n+]5ccn(C)c5)cc4)c3)CC12 (centres unmarked) [R^c = CH3, R' = Br]	< 12.5
CC(O)C1C(=O)N2C(C(=O)[O-])=C(c3cc(C#N)cc(-c4ccc(C[n+]5ccn(C)c5)cc4)c3)CC12 (centres unmarked) [R^c = CH3, R' = CN]	100
CC(O)C1C(=O)N2C(C(=O)[O-])=C(c3cccc(-c4ccc(C[n+]5ccn(C)c5)cc4)c3)CC12 (centres unmarked) [R^c = CH3, R' = H]	35
